According to patent US20100028878A1, “Modulators of UDP-glucose ceramide glucosyltransferase for treating acne or hyperkeratinization” (GALDERMA RESEARCH & DEVELOPMENT, priority 2006, published 2010):

Tested on: mRNA for UGCG in the mouse preputial gland
Settings: gonadectomized male mice, medium-term treatment, effect visible at 96 hours
Method: The expression of the genes was analyzed on an Affymetrix station (microfluidic model; hybridization oven; scanner; computer) following the protocols provided by the company. Briefly, the total RNA isolated from the tissues is transcribed to cDNA. From the double-stranded cDNA, a cRNA labeled with biotin is synthesized using T7 polymerase and a precursor NTP conjugated to biotin. The cRNAs are then fragmented to small sized fragments. All the molecular biology steps are checked using the Agilent “Lab on a chip” system in order to confirm the good efficiencies of the enzymatic reactions. The Affymetrix chip is hybridized with the biotinylated cRNA, rinsed and then fluorescence labeled using a fluorophore conjugated to streptavidin. After washings, the chip is scanned and the results are calculated using the MAS5 software provided by Affymetrix. An expression value is obtained for each gene as well as the indication of the significance of the value obtained.
B. Male mice were gonadectomized and treated with the vehicle or DHT. The preputial glands were removed for a period ranging up to 4 days (androgenic treatment alone—observation of a short-term kinetics). The RNA was isolated and the expression of the genes was analyzed by the Affymetrix technique.

C[C@]12CCC(=O)C[C@@H]1CC[C@@H]1[C@@H]2CC[C@]2(C)[C@@H](O)CC[C@@H]12 [DHT, Dihydrotestosterone]
mRNA for UGCG in the mouse preputial gland: reduced
